This note sets out measurements from patent US11629121B2, “Benzylideneacetone derivative and use thereof” (KORPHARM CO., LTD., priority 2017, dated 2023).

Like-named read-outs stand apart in the source and are kept apart here.

Data set [1] concerns osteoclast differentiation from bone marrow cells (RANKL and M-CSF). The data set is described as follows: TRAP assay, osteoclast differentiation and proliferation. Format: cell-based, C57BL/6 mice. The note with it: TRAP-positive multinucleated cells, mouse bone marrow cells, 6-7 days, read-out: osteoclast differentiation inhibitory activity IC50. How it is done: The specific method of the TRAP assay is as follows:
The tibia and femur were aseptically excised from 6 to 8 weeks old male C57BL/6 mice, and bone marrow cells were collected aseptically with a syringe (21G, Korea Green Cross). Bone marrow cells were suspended in 500 μl of -MEM medium (Gibco BRL Co.) containing sodium bicarbonate (2.0 g/L), streptomycin (100 mg/L) and penicillin ([…]), and aliquoted into a 48-well plate, and assay was carried out with triplicate. The progenitor cells of osteoclasts, monocytes, were isolated and treated with RANKL and M-CSF, which are differentiation promoters, to differentiate into osteoclasts within 5-7 days.
1) Sample preparation: KP2 to KP8 (0.5 μM, 1 μM, 5 μM or 10 μM), Fosamax (0.5 μM, 1 μM, 5 μM, or 10 μM) and the like were dissolved in DMSO (dimethylsulfoxide) or sterile distilled water at appropriate concentrations, respectively.
2) Sample administration: The Samples were continuously administered to the medium at 1:20 (v/v; 25 μL of sample per 500 μL of medium) from the first day of culture of bone marrow cells, and the medium was replaced at 3 days intervals.
3) Osteoclast differentiation measurement: Osteoclasts were defined as TRAP-positive multinucleated cells stained with TRAP. […] The reaction reagents were stored in the refrigerator until use.
Bone marrow cells were cultured in a medium containing differentiation factors for 6-7 days, and then the medium was removed, washed with PBS, and fixed in PBS containing 10% formalin for 2-5 minutes. After fixed for 1 minute with a 1:1 mixture of ethanol and acetone, and dried. The fixed cells were treated with TRAP staining solution for 60 minutes at 37° C. with light blocking, washed with PBS, and then stained with Hematoxylin.
Among the TRAP-positive cells in the microscope field, cells with two or more nuclei were determined as osteoclasts and the number of cells was measured.

For data set [2], the system named is PC3 human prostate cancer Cell line. The data set is described as follows: MTT assay, cancer cells PC3. Format: cell-based. The note with it: 48 hours. The text has this:
(§1) The cytotoxicity against normal cells and cancer cells was confirmed using the MTT assay for the novel compounds KP2 to KP8 prepared in Example 1.
(§2) MTT assay method is as follows:
(§3) Normal cells (RAW264.7 rat macrophage cell line (osteoblast progenitor cell) and NIH3T3 mouse fibroblast line) and cancer cells (AGS human gastric cancer cell line, A549 human lung cancer cell line, HepG2 human liver cancer cell line, HCT116 human colon cancer cell line, PC3 human prostate cancer Cell line, Caki-1 human kidney cancer cell line, T24 human bladder cancer cell line, HT1080 human fibrosarcoma cell line, B16F10 mouse melanoma cell line) were cultured in 5% CO2 in 96-well plates containing DMEM with 10% FBS (fetal bovine serum). After incubation, KP2 to KP8 and controls (osmundacetone and 4-hydroxybenzalacetone) were added to the cell medium and incubated for 48 hours. Thereafter, 100 μl of MTT (0.5 mg/mL phosphate buffered saline) was added, followed by incubation for 2 hours. 100 μl of DMSO was added to each well, followed by incubation for 10 minutes, and the absorbance was measured at 550 nm using a microplate reader (SPCTRA MAX 340PC, Molecular Devices, USA). Absorbance is calculated by the formula below as an indicator of the number of cells that survived, and reproducibility was confirmed by three experiments.
(§4) The rate of cell proliferation (%)=OD550(sample)/OD550(control)
For orientation: Formazan colour is commonly taken as a measure of viable cells.

Data set [3] has as its system A549 human lung cancer cell line. The data set is described as follows: MTT assay, cancer cells A549. Conditions: MTT assay, 48 hours, A549. The format is cell-based.
Text: as §1, §2, §3, §4

The test system of data set [4] is osteoblasts (mouse MC3T3-E1). The data set is described as follows: ALP (Alkaline phosphatase) assay, osteoblast activity. The format is cell-based. Conditions: for ALP activity / osteoblast activation versus control: 10 μM and 50 μM; for % Activation of ALP activity: MC3T3-E1, 14 days, percentage against control. On the procedure:
Effect of KP4 to KP6 on proliferation and differentiation of osteoblast were confirmed using ALP (Alkaline phosphatase) assay, a method for measuring osteoblast activity.
Alkaline phosphatase (ALP), which is present in the cell membranes of osteoblasts, is known as a marker of osteoblast activity and is a regulator of inorganic phosphate transport, cell division or differentiation during calcification. Therefore, ALP activity was measured to determine the effect of the compounds of the present invention on the activity of osteoblasts. ALP activity was indirectly calculated by measuring the amount of p-nitrophenol, which is produced from hydrolysis of p-nitrophenyl phosphate (pNPP, Sigma, St. Louis, Mo., USA) in which ALP act as a catalyst, using a microplate reader at 405 nm wavelength.
Specifically, osteoblasts (mouse MC3T3-E1) were aliquoted into a 96-well plate (3×10^3 cells/100 μL/well) with α-MEM medium containing ascorbic acid (50 μg/mL) and 10 mM β-glycerophosphate, a differentiation factors of osteoblast. Then, KP4 to KP6 of the present invention, and osmundacetone were added at a final concentration of 10 μM and 50 μM, followed by changing medium every 72 hours and incubating for 14 days. After 14 days, the culture medium was removed from each well, washed three times with PBS, lysed with 0.2% Nonidet P-40/10 mmol/L MgCl2, and then treated ultrasonic wave with sosonifier cell disrupter (Model W-380, Heat Systems-Ultrasonics Inc., Farmingdale, N.Y.) for 3 minutes. The cell lysate was centrifuged at 1500 g for 10 minutes and the supernatant was collected to measure ALP activity. To account for changes in ALP activity according to cell number differences, total protein levels were measured using bicinchoninic acid (BCA) protein assay kit with bovine serum albumin as the standard protein, and enzyme activity was expressed as a percentage against the control group without the compound treatment.

For data set [5], the system named is RAW264.7 rat macrophage cell line. The data set is described as follows: MTT assay, normal cells RAW264.7. Format: cell-based.
Text: as §1, §2, §3, §4

The subject of data set [6] is NIH3T3 mouse fibroblast line. The data set is described as follows: MTT assay, normal cells NIH3T3. Format: cell-based.
Text: as §1, §2, §3, §4

Data set [7] has as its system AGS human gastric cancer cell line. The data set is described as follows: MTT assay, cancer cells AGS. The format is cell-based. The note with it: 48 hours.
Text: as §1, §2, §3, §4

Data set [8] has as its system T24 human bladder cancer cell line. The data set is described as follows: MTT assay, cancer cells T24. Format: cell-based. Conditions: for LD63 Cancer cell T24: MTT assay, 48 hours.
Text: as §1, §2, §3, §4

Data set [9] relates to B16F10 mouse melanoma cell line. The data set is described as follows: MTT assay, cancer cells B16F10. The format is cell-based. Conditions: 48 hours, H16F10.
Text: as §1, §2, §3, §4

Data set [10] has as its system HT1080 human fibrosarcoma cell line. The data set is described as follows: MTT assay, cancer cells HT1080. Conditions: 48 hours. Format: cell-based.
Text: as §1, §2, §3, §4

The test system of data set [11] is HCT116 human colon cancer cell line. The data set is described as follows: MTT assay, cancer cells HCT116. Format: cell-based. Conditions: MTT assay, 48 hours, HCT116.
Text: as §1, §2, §3, §4

Data set [12] has as its system Caki-1 human kidney cancer cell line. The data set is described as follows: MTT assay, cancer cells Caki-1. The format is cell-based. The note with it: 48 hours.
Text: as §1, §2, §3, §4

The test system of data set [13] is HepG2 human liver cancer cell line. The data set is described as follows: MTT assay, cancer cells HepG2. Format: cell-based. Conditions: MTT assay, 48 hours, HepG2.
Text: as §1, §2, §3, §4

As to `NCCCC(O)(P(=O)(O)O)P(=O)(O)O` [Fosamax, reference compound], the IC50 in data set [1] (Osteoclast) came out at 4 µM.

In the case of `COc1ccc(/C=C/C(C)=O)cc1O` [KP5, (E)-4-(3-hydroxy-4-methoxyphenyl)-3-buten-2-one], the “LD63 Cancer cell PC3” value in data set [2] came out at 291 ± 5.7 µM. The “LD63 Cancer cell A549” value in [3] was determined as 1890 ± 210 µM. In data set [4], the “ALP activity / osteoblast activation versus control” value was “higher ALP activity”. Besides, the “% Activation of ALP activity” value in [4] (10 μM) is 103 ± 1.1%; in data set [4] (50 μM) it was 175 ± 0.3%. Also, the “LD50 Normal cells RAW264.7” value in data set [5] (rat, 48 h) turned out to be 261 ± 79 µM. Also, in [6] (mouse, 48 h), the “LD50 Normal cells NTH3T3” value was more than 5000 µM. Also, the “LD63 Cancer cell AGS” value in [7] came out at 181 ± 15 µM. Further, the “LD63 Cancer cell T24” value in data set [8] was more than 5000 µM. Also, the “Cytotoxicity, B16F10 cells” value in data set [9] came to 441 ± 58 µM. Further, the IC50 in [1] (Osteoclast) is 1 µM. The “LD63 Cancer cell HT1080” value in data set [10] was determined as 381 ± 49 µM. Further, the “LD63 Cancer cell HCT116” value in [11] came to 491 ± 72 µM. Also, the “LD63 Cancer cell Caki-1” value in data set [12] was determined as 409 ± 11 µM.

For the compound `CC(=O)/C=C/c1ccc(O)c(F)c1` [KP6, (E)-4-(3-fluoro-4-hydroxyphenyl)-3-buten-2-one], the “LD63 Cancer cell PC3” value in data set [2] was 205 ± 13 µM. The “LD63 Cancer cell A549” value in [3] is 901 ± 28 µM. Also, in data set [4], the “ALP activity / osteoblast activation versus control” value is listed as “no activity on activating osteoblast”. Further, the “% Activation of ALP activity” value in data set [4] (10 μM) is 102 ± 0.2%; in data set [4] (50 μM), 100 ± 0.8%. Moreover, the “LD50 Normal cells RAW264.7” value in [5] (rat, 48 h) amounted to 1110 ± 48 µM. Also, the “LD50 Normal cells NTH3T3” value in data set [6] (mouse, 48 h) is more than 5000 µM. The “LD63 Cancer cell AGS” value in data set [7] amounted to 336 ± 3.9 µM. Besides, the “LD63 Cancer cell T24” value in data set [8] worked out at 3610 ± 130 µM. For the same compound, in data set [9], the “Cytotoxicity, B16F10 cells” value was 421 ± 41 µM. In addition, in data set [1] (Osteoclast), the IC50 amounted to 6 µM. Moreover, the “LD63 Cancer cell HT1080” value in [10] was >5,000 μM. The “LD63 Cancer cell HCT116” value in data set [11] was found to be 490 ± 38 µM. In addition, the “LD63 Cancer cell Caki-1” value in [12] was found to be 449 ± 40 µM.

For `NC(=O)/C=C/c1ccc(F)c(O)c1` [KP8, (E)-3-(4-fluoro-3-hydroxyphenyl)acrylamide], in data set [2], the “LD63 Cancer cell PC3” value was >5,000 μM. The “LD63 Cancer cell A549” value in [3] amounted to 935 ± 10 µM. Also, in data set [5] (rat, 48 h), the “LD50 Normal cells RAW264.7” value was more than 5000 µM. Moreover, in data set [6] (mouse, 48 h), the “LD50 Normal cells NTH3T3” value was more than 5000 µM. Moreover, the “LD63 Cancer cell AGS” value in [7] came out at 569 ± 4.8 µM. In addition, in [8], the “LD63 Cancer cell T24” value stood at 203 ± 69 µM. In addition, the “inhibitory activity” value in data set [8] (T24 bladder cancer cells) is “particularly better inhibitory activity”. Also, the “Cytotoxicity, B16F10 cells” value in data set [9] is reported as >5,000 μM. In addition, in data set [10], the “LD63 Cancer cell HT1080” value is 1090 ± 19 µM. Also, in [11], the “LD63 Cancer cell HCT116” value is listed as >5,000 μM. For the same compound, the “LD63 Cancer cell Caki-1” value in data set [12] is 2990 ± 58 µM. In addition, the “LD63 Cancer cell HepG2” value in data set [13] worked out at 1280 ± 390 µM.

Turning to `CC(=O)/C=C/c1ccc(O)c(O)c1` [Osmundacetone, reference compound], the “LD63 Cancer cell PC3” value in [2] amounted to 60.6 ± 14 µM. Besides, in [3], the “LD63 Cancer cell A549” value was more than 5000 µM. The figures for the “% Activation of ALP activity” value in data set [4] (10 μM) and in data set [4] (50 μM) were 115 ± 9.4% and 279 ± 61%, respectively. Also, in data set [5] (MTT assay, 48 hours, RAW264.7), the “LD50 Normal cells RAW264.7” value was determined as 529 ± 41 µM. Besides, in data set [6] (MTT assay, 48 hours, NTH3T3), the “LD50 Normal cells NTH3T3” value is more than 5000 µM. The “LD63 Cancer cell AGS” value in [7] came out at 56.1 ± 2.1 µM. In addition, the “LD63 Cancer cell T24” value in [8] was 2000 ± 250 µM. Besides, the “Cytotoxicity, B16F10 cells” value in [9] worked out at 64.9 ± 59 µM. Further, the IC50 in [1] is 8 µM. Besides, the “LD63 Cancer cell HT1080” value in [10] is more than 5000 µM. Also, the “LD63 Cancer cell HCT116” value in data set [11] turned out to be 689 ± 27 µM. In addition, the “LD63 Cancer cell Caki-1” value in [12] worked out at 695 ± 14 µM. Moreover, the “LD63 Cancer cell HepG2” value in [13] is more than 5000 µM.

In general, IC50 refers to the point on the concentration scale where inhibition reaches its midpoint.
